Data from US20120095062A1, “TRICYCLIC COMPOUNDS, COMPOSITIONS, AND METHODS” (Pfizer Inc., priority 2007, published 2012).
pIC50: −log10 of the molar value. Counter-ions that a name gives are not always drawn. Like-named read-outs stand apart in the source and are kept apart here. Blank lines part the entries; values can stand above or below the compound they belong to.

Tests used:
[1] = test system: IL-6, Human A549 lung epithelial cells; test: IL-6 inhibition in IL-1β-stimulated A549 cells; type: cell-based; settings: for pIC50: A549, 20 h, A549 cells, 1 ng/mL IL-1β, 20 hours, read-out: IL-6 IC50; for inhibition: A549, A549 cells, Prednisolone (1 μM) = 100% inhibition control
Experimental: Human A549 lung epithelial cells (American Type Culture Collection, Rockville, Md.) were cultured in Kaighn's F-12K medium with penicillin-streptomycin (10 U/mL) and 10% heat-inactivated fetal bovine serum (all from Invitrogen, Grand Island, N.Y.). A549 cells were plated at a density of 30,000 cells/well in 96-well plates and incubated overnight at 37° C. and with 5% CO2. The cells were serum-starved by replacing the growth medium with serum-free Kaighn's F-12K medium with penicillin-streptomycin (10 U/mL) and, again, incubating overnight at 37° C. and with 5% CO2. On the third day, the medium was replaced with fresh serum-free medium and the cells were incubated with or without compound (vehicle was DMSO at 0.1% maximum concentration) for approximately 1 hour and then stimulated with 1 ng/mL recombinant human IL-1β (R&D Systems, Minneapolis, Minn.) for 20 hours at 37° C. and with 5% CO2. Cell supernatants were collected for determination of IL-6 levels using MSD (Meso Scale Discovery, Gaithersburg, Md.) 96-well Single Spot plates as per the manufacturer's instructions. Plates were read with an MSD Sector Imager 6000. […] Vehicle was used to define the 0% inhibition control. Percent inhibition for each compound concentration, relative to these controls, was calculated using Excel (Microsoft, Redmond, Wash.). IC50 values were generated using GraFit 5.0 data analysis software (Erithacus Software Ltd., Surrey, UK).

[2] = test system: Mouse Collagen-induced arthritis; test: Therapeutic mouse collagen-induced arthritis (mCIA) model; type: in vivo; settings: mice, dosing day 34 through day 49, read-out: Therapeutic mCIA (ED50 dose)
Text: Mouse Collagen-induced arthritis is a commonly used chronic, preclinical model of rheumatoid arthritis in which joint swelling and bone destruction occur following immunization with type II collagen. Reduction of disease incidence and severity has been shown previously to be predictive of disease-modification and signs and symptoms mitigation, respectively, in a clinical setting.
In the therapeutic mCIA model, induction of disease incidence and severity was synchronized via LPS stimulation. Male […] mice were immunized with 100 ug of bovine type II collagen (bCII) on day 0. All mice received an intraperitoneal injection of 20 μg of LPS on day 28 and disease was allowed to develop through day 34. At day 34, all mice had disease (incidence=100%) with an average severity score of seven. Dosing of compounds was initiated in the therapeutic mode on day 34 and continued through day 49. Different treatments were compared by measuring the decrease in incidence (i.e., resolution of disease) and the decrease in severity of paw swelling over time.

LPS-induced serum TNFα = LPS-induced serum TNFα suppression, 28-day repeat dose mouse model; type: in vivo; settings: 672 h, mice, oral gavage 28 days
Serum osteocalcin = Serum osteocalcin suppression, 28-day repeat dose mouse model; type: in vivo, mice; settings: Mus musculus, 672 h; mice, oral gavage 28 days, serum osteocalcin
TNFα, U937 cells = test: TNFα inhibition in LPS-stimulated differentiated U937 cells; type: cell-based; design: inhibition: dose or concentration left out as unconfirmed; settings: Homo sapiens; for pIC50: U-937, 4 h, U937 cells, 100 ng/mL LPS, four hours, read-out: TNFα IC50
Experimental: Cells were differentiated to a monocyte/macrophage phenotype with phorbol 12-myristate 13-acetate (Sigma-Aldrich, St. Louis, Mo.), 20 ng/mL, overnight. […] Following recovery, the cells were scraped, counted, and plated in accordance to the experimental design prior to stimulation with LPS, as described below. U937 cells were differentiated and plated at a density of 200,000 cells/well in 96-well plates. […] Louis, Mo.) for four hours at 37° C. and with 5% CO2. Cell supernatants were collected for determination of TNFα levels using an in-house sandwich-type ELISA. Mouse anti-human TNFα monoclonal antibody (clone 28401.111) and biotinylated goat anti-human TNFα (R&D Systems, Minneapolis, Minn.) were used as the capture and detection antibodies, respectively. Streptavidin-horseradish peroxidase (HRP) (R&D Systems, Minneapolis, Minn.) and K-Blue Substrate/Red Stop (Neogen, Lexington, Ky.) were used as the detection system. Absorbance was measured at 650 nm. TNFα concentrations were interpolated from a human TNFα recombinant protein (R&D Systems, Minneapolis, Minn.) standard curve using a four parameter logistics model by Magellan 4.11 data analysis software (Tecan, Durham, N.C.). […] Vehicle was used to define the 0% inhibition control. Percent inhibition for each concentration of compound, relative to these controls, was calculated using Excel (Microsoft, Redmond, Wash.).

IFNγ = test: Ex vivo LPS-stimulated human whole blood, IFNγ production; type: cell-based; settings: mean
Experimental: (§1) Venous blood from human donors was collected as 10 ml aliquots in tubes containing sodium heparin (BD Vacutainer from Becton Dickinson and Company, Franklin Lakes, N.Y.). Blood was added to sterile polystyrene round bottom 96-well tissue culture plates (Corning Costar) at 100 μl/well, omitting the outside wells. Media (RPMI Medium 1640 with L-glutamine, Invitrogen Corporation, Carlsbad, Calif.) was added to the blood in 90 μl aliquots for a total volume of 190 μl. Outside wells were filled with 200 μl of media. Blood was placed in a humidified 37° C. incubator with 5% CO2 while compounds were prepared (nearly 60 minutes).
(§2) Compounds were prepared from 10 mM stock solutions in dimethylsulfoxide (DMSO, Sigma-Aldrich). […] Final DMSO and ethanol concentrations in the assay were 0.1% and 1.5%. The samples were gently triturated twice to mix and replaced in the incubator. LPS stock (E. coli serotype 0111:84, Sigma-Aldrich), stored in aliquots of 100 μg/ml in RPMI at −20° C., was diluted 1/50 in RPMI to make a working stock solution. After 60 minutes of incubation, 10 μl of the prepared LPS working stock was added to the blood to a final concentration of 100 ng/ml, omitting wells to be used as negative control. The samples were again gently triturated and the plates incubated overnight for 22 hours. Following incubation, the blood was centrifuged at 1500×g for 5 minutes and the plasma removed to either freeze at −20° C. or assay for cytokine release.
(§3) IL-1β, IFNγ,IL-6, and TNFα protein levels were measured using Meso Scale assay kits (Meso Scale Discovery, Gaithersburg, Md.). Reagents were allowed to come to room temperature. Meso Scale plates were blocked with […] of human plasma/serum assay diluent with gentle shaking for 60 minutes at room temperature. Plates were washed 3× with wash buffer (PBS, Invitrogen Corporation, with 0.05% Tween-20, Sigma-Aldrich). Calibrators for standard curves were prepared in human plasma/serum assay diluent as a 1/5 serial dilution to achieve final concentrations ranging from 50000 pg/ml to 3.2 pg/ml. Samples and calibrators were added at 20 μl/well, then incubated at room temperature with gentle shaking for 90 minutes. Plates were again washed 3 times with wash buffer. Detection antibody was diluted in human plasma/serum antibody diluent to 1 μg/ml and added to the plate at 20 μl/well. Plates were incubated as before for 60 minutes and washed again. Read Buffer T (4×) was diluted 1:1 with mqH2O to 2 times concentration and 150 μl added to each well. Plates were analyzed on the SECTOR Imager 6000 (Meso Scale Discovery) to generate raw signal values.
(§4) IL-1β, IFNγ, IL-6, and TNFα sample values were verified to be within the calibrator standard curves. Individual values were compared to positive and negative controls (vehicle treated blood with LPS and vehicle treated blood without LPS, respectively) to generate % inhibition. Triplicate values were averaged for each donor. The values for two donors were averaged (only one donor was used for IL-1β) and graphed using 4-parameter fit curves in the GraFit 5.0.11 application.

TNFα = test: Ex vivo LPS-stimulated human whole blood, TNFα production; type: cell-based; settings: mean
Experimental: as §1, §2, §3
as §4, with “Individual” for “IL-1β, IFNγ, IL-6, and TNFα sample values were verified to be within the calibrator standard curves. Individual”

IL-1β = test: Ex vivo LPS-stimulated human whole blood, IL-1β production; type: cell-based; settings: one donor
Experimental: as §1, §2, §3, §4

IL-6 = test: Ex vivo LPS-stimulated human whole blood, IL-6 production; type: cell-based; settings: mean
Experimental: as §1, §2, §3, §4

Compound: Cc1cnc(NC(=O)c2ccc3c(c2)CC[C@@H]2C[C@@](O)(C(F)(F)F)CC[C@@]32Cc2ccccc2)c(C)n1 [Comparator B, (4βS,7R,8αR)-4β-benzyl-N-(3,5-dimethylpyrazin-2-yl)-7-hydroxy-7-(trifluoromethyl)-4β,5,6,7,8,8α,9,10-octahydrophenanthrene-2-carboxamide]
- pIC50 [1]: 8.40
- inhibition [1]: 75.8%
- ED50 [2]: 2.9 mg/kg
- ED50 (LPS-induced serum TNFα): 1.64 mg/kg
- ED50 (Serum osteocalcin): 2.39 mg/kg

Compound: Cc1ncccc1NC(=O)c1ccc2c(c1)CC[C@@H]1C[C@@](O)(C(F)F)CC[C@@]21Cc1ccccc1 [Comparator H, (4βS,7R,8αR)-4β-benzyl-7-(difluoromethyl)-7-hydroxy-N-(2-methylpyridin-3-yl)-4β,5,6,7,8,8α,9,10-octahydrophenanthrene-2-carboxamide]
- pIC50 [1]: 8.37
- inhibition [1]: 64.9%
- ED50 (LPS-induced serum TNFα): 0.23 mg/kg
- ED50 (Serum osteocalcin): 0.51 mg/kg

- pIC50 [1]: 7.22
Compound: Cc1ncccc1NC(=O)c1ccc2c(c1)CC[C@@H]1C[C@@](OP(=O)(O)O)(C(F)(F)F)CC[C@@]21Cc1ccccc1 [Example 2, (2R,4αS,10αR)-4α-benzyl-7-((2-methylpyridin-3-yl)carbamoyl)-2-(trifluoromethyl)-1,2,3,4,4α,9,10α-octahydrophenanthren-2-yl dihydrogen phosphate]

Compound: Cc1c(NC(=O)c2ccc3c(c2)CC[C@@H]2C[C@@](O)(C(F)(F)F)CC[C@@]32Cc2ccccc2)ccc[n+]1[O-] [Comparator G]
- pIC50 [1]: 8.68
- inhibition [1]: 80.1%
- ED50 (LPS-induced serum TNFα): 2.9 mg/kg
- ED50 (Serum osteocalcin): 1.12 mg/kg

Compound: Cc1ccncc1NC(=O)c1ccc2c(c1)CC[C@@H]1C[C@@](O)(C(F)(F)F)CC[C@@]21Cc1ccccc1 [Comparator D, (4βS,7R,8αR)-4β-benzyl-7-hydroxy-N-(4-methylpyridin-3-yl)-7-(trifluoromethyl)-4β,5,6,7,8,8α,9,10-octahydrophenanthrene-2-carboxamide]
- pIC50 [1]: 8.89
- inhibition [1]: 79.8%
- ED50 (LPS-induced serum TNFα): 1.47 mg/kg
- ED50 (Serum osteocalcin): 1.18 mg/kg

Compound: Cc1ncccc1CNC(=O)c1ccc2c(c1)CC[C@@H]1C[C@@](O)(CCC(F)(F)F)CC[C@@]21Cc1ccccc1 [Comparator A, (4βS,7S,8αR)-4β-benzyl-7-hydroxy-N-((2-methylpyridin-3-yl)methyl)-7-(3,3,3-trifluoropropyl)-4β,5,6,7,8,8α,9,10-octahydrophenanthrene-2-carboxamide]
- pIC50 [1]: < 7.44
- inhibition [1]: 59.9%
- inhibition (TNFα, U937 cells; U-937): 35%
- pIC50 (TNFα, U937 cells): < 6.00
- inhibition at 0.00137174 µM (IFNγ; 1.371742 nM): 18.1%
- inhibition at 0.00411523 µM (IFNγ; 4.115226 nM): -1.7%
- inhibition at 0.0123457 µM (IFNγ; 12.34568 nM): 0.016%
- inhibition at 0.037037 µM (IFNγ; 37.03704 nM): -9.81%
- inhibition at 0.111111 µM (IFNγ; 111.1111 nM): 8.74%
- inhibition at 0.333333 µM (IFNγ; 333.3333 nM): -6.32%
- inhibition at 1 µM (IFNγ; 1000 nM): 16.5%
- inhibition at 3 µM (IFNγ; 3000 nM): 28%
- inhibition at 0.00137174 µM (TNFα; 1.371742 nM): 18.1%
- inhibition at 0.00411523 µM (TNFα; 4.115226 nM): -0.861%
- inhibition at 0.0123457 µM (TNFα; 12.34568 nM): 0.0309%
- inhibition at 0.037037 µM (TNFα; 37.03704 nM): -4.19%
- inhibition at 0.111111 µM (TNFα; 111.1111 nM): -3.82%
- inhibition at 0.333333 µM (TNFα; 333.3333 nM): -4.61%
- inhibition at 1 µM (TNFα; 1000 nM): -5.44%
- inhibition at 3 µM (TNFα; 3000 nM): -3.04%
- inhibition at 0.00137174 µM (IL-1β; 1.371742 nM): 32%
- inhibition at 0.00411523 µM (IL-1β; 4.115226 nM): 22%
- inhibition at 0.0123457 µM (IL-1β; 12.34568 nM): 22.8%
- inhibition at 0.037037 µM (IL-1β; 37.03704 nM): 17.3%
- inhibition at 0.111111 µM (IL-1β; 111.1111 nM): 8.6%
- inhibition at 0.333333 µM (IL-1β; 333.3333 nM): 12.2%
- inhibition at 1 µM (IL-1β; 1000 nM): 15%
- inhibition at 3 µM (IL-1β; 3000 nM): 16.4%
- inhibition at 0.00137174 µM (IL-6; 1.371742 nM): 1.46%
- inhibition at 0.00411523 µM (IL-6; 4.115226 nM): -4.34%
- inhibition at 0.0123457 µM (IL-6; 12.34568 nM): -1.13%
- inhibition at 0.037037 µM (IL-6; 37.03704 nM): -3.52%
- inhibition at 0.111111 µM (IL-6; 111.1111 nM): -3.5%
- inhibition at 0.333333 µM (IL-6; 333.3333 nM): -2.83%
- inhibition at 1 µM (IL-6; 1000 nM): -0.89%
- inhibition at 3 µM (IL-6; 3000 nM): -1.97%
- ED50 (LPS-induced serum TNFα): 60 mg/kg
- ED50 (Serum osteocalcin): 37 mg/kg

- pIC50 [1]: 9.40
- pIC50 (TNFα, U937 cells): 7.04
- IC50 (TNFα, U937 cells; U-937, value in brackets, footnote a: additional results that were found, read-out: TNFα IC50 (nM), additional result): 28.8 nM
Compound: Cc1ncccc1NC(=O)c1ccc2c(c1)CC[C@@H]1C[C@@](O)(C(F)(F)F)CC[C@@]21Cc1ccccc1 [Example 1 HCL salt, (4βS,7R,8αR)-4β-benzyl-7-hydroxy-N-(2-methylpyridin-3-yl)-7-(trifluoromethyl)-4β,5,6,7,8,8α,9,10-octahydrophenanthrene-2-carboxamide]
- inhibition [1]: 76.9%
- inhibition (TNFα, U937 cells; U-937): 77.1%
